Measurements taken from patent US20250230155A1 (Vanderbilt University, priority 2021, published 2025).
pEC50: −log10 of the molar value.

Target: T1, human mAChR M4 (Homo sapiens, UniProt P08173)
T1 construct: expressed in transfected cells
T1 sequence (P08173 1-479): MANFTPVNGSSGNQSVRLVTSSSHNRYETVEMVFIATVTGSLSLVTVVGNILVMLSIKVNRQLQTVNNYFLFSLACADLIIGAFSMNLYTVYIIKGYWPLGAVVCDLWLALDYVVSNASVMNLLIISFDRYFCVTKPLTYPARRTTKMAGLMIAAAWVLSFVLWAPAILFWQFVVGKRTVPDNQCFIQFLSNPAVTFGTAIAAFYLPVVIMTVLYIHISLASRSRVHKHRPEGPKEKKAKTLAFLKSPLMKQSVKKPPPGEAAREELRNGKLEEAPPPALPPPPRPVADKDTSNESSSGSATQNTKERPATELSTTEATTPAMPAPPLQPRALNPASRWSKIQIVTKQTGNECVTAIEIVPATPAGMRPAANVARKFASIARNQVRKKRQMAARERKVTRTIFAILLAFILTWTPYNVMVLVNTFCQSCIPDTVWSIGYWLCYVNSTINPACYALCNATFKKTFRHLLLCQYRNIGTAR
Assay: mAChR M4 cell-based functional assay (calcium mobilization, CHO-K1 hM4-Gqi5 cells)
Details: for Emax at 30 µM: CHO-K1, % ACh maximum at 30 μM, human M4; for pEC50: positive allosteric modulator activity, increase in the EC20 acetylcholine response, CHO-K1 hM4-Gqi5 cells, read-out: Human M4 EC50
In short: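 Fluorescent calcium read-out (Fluo-4 AM, FDSS, 1 Hz) in hM4-Gqi5 CHO-K1 cells, 11-point 1:3 compound series. Agonism scored on compound addition, PAM activity as increase of the 144 s EC20 acetylcholine response, antagonism as decrease of the 230 s EC80 response; four-parameter logistic fits give EC50 and Emax.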

| Compound | Emax at 30 µM [%] | pEC50 | Emax (CHO-K1) [%] |
| --- | --- | --- | --- |
| Cc1cc(C(=O)N2CC3(COC3)C2)nnc1N1CCc2ncc(N3CCO[C@H](C)C3)cc2C1 [Example 575, (R)-(5-methyl-6-(3-(2-methylmorpholino)-7,8-dihydro-1,6-naphthyridin-6(5H)-yl)pyridazin-3-yl)(2-oxa-6-azaspiro[3.3]heptan-6-yl)methanone] | 75 | 7.06 |  |
| [2H]C([2H])([2H])c1cnc2c(c1)CN(c1nnc(C(=O)N3CCCC3)cc1C)CC2 [Example 578, (5-methyl-6-(3-(methyl-d3)-7,8-dihydro-1,6-naphthyridin-6(5H)-yl)pyridazin-3-yl)(pyrrolidin-1-yl)methanone] | 105 | 5.61 |  |
| [2H]C([2H])([2H])c1cnc2c(c1)CN(c1nnc(C(=O)NCc3ccncc3)cc1C)CC2 [Example 579, 5-methyl-6-(3-(methyl-d3)-7,8-dihydro-1,6-naphthyridin-6(5H)-yl)-N-(pyridin-4-ylmethyl)pyridazine-3-carboxamide] | 111 | 7.30 |  |
| Cc1cc(C(=O)NCc2ccncc2)nnc1N1CCc2ncc(CC(F)(F)F)cc2C1 [Example 581, 5-methyl-N-(pyridin-4-ylmethyl)-6-(3-(2,2,2-trifluoroethyl)-7,8-dihydro-1,6-naphthyridin-6(5H)-yl)pyridazine-3-carboxamide] | 96 | 7.22 |  |
| Cc1cc(C(=O)N2CC(CO)(CO)C2)nnc1N1CCc2ncc(CC(F)(F)F)cc2C1 [Example 584, (3,3-bis(hydroxymethyl)azetidin-1-yl)(5-methyl-6-(3-(2,2,2-trifluoroethyl)-7,8-dihydro-1,6-naphthyridin-6(5H)-yl)pyridazin-3-yl)methanone] | 91 | 6.27 |  |
| Cc1cc(C(=O)N2CC(F)C2)nnc1N1CCc2ncc(CC(F)(F)F)cc2C1 [Example 586, (3-fluoroazetidin-1-yl)(5-methyl-6-(3-(2,2,2-trifluoroethyl)-7,8-dihydro-1,6-naphthyridin-6(5H)-yl)pyridazin-3-yl)methanone] | 99 | 6.75 |  |
| Cc1cc(C(=O)N2CCOCC2)nnc1N1CCc2ncc(CC(F)(F)F)cc2C1 [Example 587, (5-methyl-6-(3-(2,2,2-trifluoroethyl)-7,8-dihydro-1,6-naphthyridin-6(5/)-yl)pyridazin-3-yl)(morpholino)methanone] | 69 | 5.18 |  |
| Cc1cc(C(=O)N2CC(C)(O)C2)nnc1N1CCc2ncc(CC(F)(F)F)cc2C1 [Example 588, (3-hydroxy-3-methylazetidin-1-yl)(5-methyl-6-(3-(2,2,2-trifluoroethyl)-7,8-dihydro-1,6-naphthyridin-6(5H)-yl)pyridazin-3-yl)methanone] | 93 | 6.49 |  |
| COC1CN(C(=O)c2cc(C)c(N3CCc4ncc(CC(F)(F)F)cc4C3)nn2)C1 [Example 589, (3-methoxyazetidin-1-yl)(5-methyl-6-(3-(2,2,2-trifluoroethyl)-7,8-dihydro-1,6-naphthyridin-6(5H)-yl)pyridazin-3-yl)methanone] | 99 | 6.76 |  |
| Cc1cc(C(=O)NCc2cncs2)nnc1N1CCc2ncc(CC(F)(F)F)cc2C1 [Example 590, 5-methyl-N-(thiazol-5-ylmethyl)-6-(3-(2,2,2-trifluoroethyl)-7,8-dihydro-1,6-naphthyridin-6(5H)-yl)pyridazine-3-carboxamide] | 94 | 7.39 |  |
| O=C1c2cc(Br)c(N3CCc4ncc(C(F)(F)F)cc4C3)nc2OCCN1Cc1ccccc1 [Example 591, 4-benzyl-7-bromo-8-(3-(trifluoromethyl)-7,8-dihydro-1,6-naphthyridin-6(5H)-yl)-3,4-dihydropyrido[3,2-f][1,4]oxazepin-5(2H)-one] | 56 | 5.70 |  |
| Cc1cc(F)ncc1-c1cnc2c(c1)CN(c1nnc(C#N)cc1C)CC2 [Example 593, 6-(3-(6-fluoro-4-methylpyridin-3-yl)-7,8-dihydro-1,6-naphthyridin-6(5H)-yl)-5-methylpyridazine-3-carbonitrile] | 70 | 6.06 |  |
| Cc1cc(C#N)cnc1N1CCc2ncc(Br)cc2C1 [Example 594, 6-(3-bromo-7,8-dihydro-1,6-naphthyridin-6(5H)-yl)-5-methylnicotinonitrile] |  | 6.88 | 84 |
| Cc1cc(F)c(F)cc1-c1cnc2c(c1)CN(c1ncc(C#N)cc1C)CC2 [Example 595, 6-(3-(4,5-difluoro-2-methylphenyl)-7,8-dihydro-1,6-naphthyridin-6(5H)-yl)-5-methylnicotinonitrile] | 38 | 5.35 |  |
| Cc1cc(F)c(F)cc1-c1cnc2c(c1)CN(c1nnc(C#N)cc1C)CC2 [Example 596, 6-(3-(4,5-difluoro-2-methylphenyl)-7,8-dihydro-1,6-naphthyridin-6(5H)-yl)-5-methylpyridazine-3-carbonitrile] | 54 | 5.73 |  |

Further molecules by rising pEC50, results first:

| Emax at 30 µM [%] | pEC50 | Compound | Emax (CHO-K1) [%] |
| --- | --- | --- | --- |
| 76 | 5.72 | Cc1cc(C(=O)N2CCCC2)nnc1N1CCc2ncc(CC(F)(F)F)cc2C1 [Example 582, (5-methyl-6-(3-(2,2,2-trifluoroethyl)-7,8-dihydro-1,6-naphthyridin-6(5H)-yl)pyridazin-3-yl)(pyrrolidin-1-yl)methanone] |  |
| 96 | 6.32 | Cc1cc(C(=O)NC2(c3cccnc3)CC2)nnc1N1CCc2ncc(CC(F)(F)F)cc2C1 [Example 585, 5-methyl-N-(1-(pyridin-3-yl)cyclopropyl)-6-(3-(2,2,2-trifluoroethyl)-7,8-dihydro-1,6-naphthyridin-6(5H)-yl)pyridazine-3-carboxamide] |  |
| 38 | 6.53 | Cc1cc2c(nc1N1CCc3ncc(C(F)(F)F)cc3C1)OCCN(Cc1ccccc1)C2=O [Example 592, 4-benzyl-7-methyl-8-(3-(trifluoromethyl)-7,8-dihydro-1,6-naphthyridin-6(5H)-yl)-3,4-dihydropyrido[3,2-f][1,4]oxazepin-5(2H)-one] |  |
| 91 | 6.92 | Cc1cc(C(=O)N2CC(F)(F)C2)nnc1N1CCc2ncc(CC(F)(F)F)cc2C1 [Example 583, (3,3-difluoroazetidin-1-yl)(5-methyl-6-(3-(2,2,2-trifluoroethyl)-7,8-dihydro-1,6-naphthyridin-6(5H)-yl)pyridazin-3-yl)methanone] |  |
| 70 | 6.96 | [2H]C([2H])([2H])c1cnc2c(c1)CN(c1nnc(C(=O)N3CC4(COC4)C3)cc1C)CC2 [Example 577, (5-methyl-6-(3-(methyl-d3)-7,8-dihydro-1,6-naphthyridin-6(5H)-yl)pyridazin-3-yl)(2-oxa-6-azaspiro[3.3]heptan-6-yl)methanone] |  |
| 75 | 6.97 | [2H]C([2H])([2H])c1cnc2c(c1)CN(c1nnc(C(=O)NC3(c4cccnc4)CC3)cc1C)CC2 [Example 580, 5-methyl-6-(3-(methyl-d3)-7,8-dihydro-1,6-naphthyridin-6(5H)-yl)-N-(1-(pyridin-3-yl)cyclopropyl)pyridazine-3-carboxamide] |  |
| 71 | 7.39 | [2H]C([2H])([2H])c1cnc2c(c1)CN(c1nnc(C(=O)N3CC(F)(F)C3)cc1C)CC2 [Example 576, (3,3-difluoroazetidin-1-yl)(5-methyl-6-(3-(methyl-d3)-7,8-dihydro-1,6-naphthyridin-6(5H)-yl)pyridazin-3-yl)methanone] |  |
